The results in this text go back to patent US20220348572A1, “BRIDGED HETEROCYCLYL-SUBSTITUTED PYRIMIDINE COMPOUND, PREPARATION METHOD THEREFOR, AND PHARMACEUTICAL USE THEREOF” (The National Institutes of Pharmaceutical R&D Co., Ltd., priority 2019, published 2022).

Structures are written as SMILES.

T1 sequence (P23458 866-1154 limits assumed): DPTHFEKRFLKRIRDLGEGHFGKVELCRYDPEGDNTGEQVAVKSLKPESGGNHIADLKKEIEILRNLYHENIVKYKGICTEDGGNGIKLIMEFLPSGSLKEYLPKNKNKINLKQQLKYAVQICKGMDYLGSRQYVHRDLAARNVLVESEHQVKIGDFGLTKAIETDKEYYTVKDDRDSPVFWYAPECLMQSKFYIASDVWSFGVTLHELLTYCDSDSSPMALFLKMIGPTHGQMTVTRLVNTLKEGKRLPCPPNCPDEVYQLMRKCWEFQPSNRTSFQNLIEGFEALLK

The test addresses T1, JAK1 kinase (Homo sapiens, UniProt P23458).
T1 construct: purchased Invitrogen PV4744
In words: In vitro inhibitory activity on JAK1 kinase (ADP-Glo Kinase Assay). As to conditions: JAK1 kinase 4 nM, 1 mM ATP. The test is classed as biochemical. In short, it runs like this: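 JAK1 (4 nM final) preincubated with compound 15 min at 25° C., then substrate mix (1 mM ATP, IRS1 0.05 mg/ml) added for 60 min at 25° C. ADP-Glo luminescence read-out; top concentration 10 μM, 3-fold, 10 points, duplicates; IC50 reported in ranged classes.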
For orientation: ADP-Glo first removes unused ATP, then detects ADP through luciferase.
As a reminder, the IC50 is the midpoint of a concentration-inhibition curve. A lower IC50 goes with greater potency in that assay. In turn, `Cn1cc(Nc2nccc(C3=CC4CCC(C3)N4C(=O)NCCC(F)(F)F)n2)cn1` (stereo not shown) [Compound 57, 3-(2-((1-methyl-1H-pyrazol-4-yl)amino)pyrimidin-4-yl)-N-(3,3,3-trifluoropropyl)-8-azabicyclo[3.2.1]oct-2-ene-8-carboxamide] returned an IC50 of 300 to 1000 nM.

In turn, `Cn1cc(Nc2nccc(C3=CC4CCC(C3)N4C(=O)NCCOC(F)(F)F)n2)cn1` (stereo not shown) [Compound 58, 3-(2-((1-methyl-1H-pyrazol-4-yl)amino)pyrimidin-4-yl)-N-(2-(trifluoromethoxy)ethyl)-8-azabicyclo[3.2.1]oct-2-ene-8-carboxamide] returned an IC50 of 100 to 300 nM. Consider `Cn1cc(Nc2nccc(C3=CC4CCC(C3)N4C(=O)C3CC3c3ccccc3)n2)cn1` (stereo not shown) [Compound 59], for which the IC50 was in the range of 300 to 1000 nM. Molecule `Cn1cc(Nc2nccc(C3=CC4CCC(C3)N4C(=O)C3CC3(C)C)n2)cn1` (stereo not shown) [Compound 60, (2,2-Dimethylcyclopropyl)(3-(2-((1-methyl-1H-pyrazol-4-yl)amino)pyrimidin-4-yl)-8-azabicyclo[3.2.1]oct-2-en-8-yl)methanone] displayed an IC50 of over 1000 nM. `Cn1cc(Nc2nccc(C3=CC4CCC(C3)N4C(=O)CC#N)n2)cn1` (stereo not shown) [Compound 61, 3-(3-(2-((1-methyl-1H-pyrazol-4-yl)amino)pyrimidin-4-yl)-8-azabicyclo[3.2.1]oct-2-en-8-yl)-3-oxopropionitrile] displayed an IC50 of 100 to 300 nM. The figure for `CC(C#N)C(=O)N1C2C=C(c3ccnc(Nc4cnn(C)c4)n3)CC1CC2` (stereo not shown) [Compound 62, 2-methyl-3-(3-(2-((1-methyl-1H-pyrazol-4-yl)amino)pyrimidin-4-yl)-8-azabicyclo[3.2.1]oct-2-en-8-yl)-3-oxopropionitrile] is 100 to 300 nM; for `Cn1cc(Nc2nccc(C3=CC4CCC(C3)N4C(=O)C3(C#N)CC3)n2)cn1` (stereo not shown) [Compound 63, 1-(3-(2-((1-methyl-1H-pyrazol-4-yl)amino)pyrimidin-4-yl)-8-azabicyclo[3.2.1]oct-2-ene-8-formyl)cyclopropane-1-carbonitrile] it is 300 to 1000 nM. As for `Cn1cc(Nc2nccc(C3=CC4CCC(C3)N4C(=O)C3(C#N)CCOCC3)n2)cn1` (stereo not shown) [Compound 64, 4-(3-(2-((1-methyl-1H-pyrazol-4-yl)amino)pyrimidin-4-yl)-8-azabicyclo[3.2.1]oct-2-ene-8-carbonyl)tetrahydro-2H-pyran-4-cyano], the figure is 300 to 1000 nM; as for `Cn1cc(Nc2nccc(C3=CC4CCC(C3)N4C(=O)CC(F)(F)F)n2)cn1` (stereo not shown) [Compound 65, 3,3,3-trifluoro-1-(3-(2-((1-methyl-1H-pyrazol-4-yl)amino)pyrimidin-4-yl)-8-azabicyclo[3.2.1]oct-2-en-8-yl)-1-acetone], 100 to 300 nM; as for `Cn1cc(Nc2nccc(C3=CC4CCC(C3)N4C(=O)CC(F)F)n2)cn1` (stereo not shown) [Compound 66, 3,3-difluoro-1-(3-(2-((1-methyl-1H-pyrazol-4-yl)amino)pyrimidin-4-yl)-8-azabicyclo[3.2.1]oct-2-en-8-yl)-1-acetone], 100 to 300 nM. Take `CC(C(=O)N1C2C=C(c3ccnc(Nc4cnn(C)c4)n3)CC1CC2)C(F)(F)F` (stereo not shown) [Compound 67, 3,3,3-trifluoro-2-methyl-1-(3-(2-((1-methyl-1H-pyrazol-4-yl)amino)pyrimidin-4-yl)-8-azabicyclo[3.2.1]oct-2-en-8-yl)-1-acetone]: the IC50 was in the range of 300 to 1000 nM. As for `Cn1cc(Nc2nccc(C3=CC4CCC(C3)N4C(=O)C(C)(C)C(F)(F)F)n2)cn1` (stereo not shown) [Compound 68, 3,3,3-trifluoro-2,2-dimethyl-1-(3-(2-((1-methyl-1H-pyrazol-4-yl)amino)pyrimidin-4-yl)-8-azabicyclo[3.2.1]oct-2-en-8-yl)acetone], the figure is 300 to 1000 nM; as for `Cn1cc(Nc2nccc(C3=CC4CCC(C3)N4C(=O)COCC(F)(F)F)n2)cn1` (stereo not shown) [Compound 69, 1-(3-(2-((1-methyl-1H-pyrazol-4-yl)amino)pyrimidin-4-yl)-8-azabicyclo[3.2.1]oct-2-en-8-yl)-2-(2,2,2-trifluoroethoxy)-1-one], 300 to 1000 nM; as for `Cn1cc(Nc2nccc(C3=CC4CCC(C3)N4C(=O)C3CCC(F)(F)C3)n2)cn1` (stereo not shown) [Compound 70, (3,3-difluorocyclopentyl)(3-(2-((1-methyl-1H-pyrazol-4-yl)amino)pyrimidin-4-yl)-8-azabicyclo[3.2.1]oct-2-en-8-yl)methanone], under 100 nM. In turn, `Cn1cc(Nc2nccc(C3=CC4CCC(C3)N4C(=O)C34CC(C(F)(F)F)(C3)C4)n2)cn1` (stereo not shown) [Compound 71, (3-(2-((1-methyl-1H-pyrazol-4-yl)amino)pyrimidin-4-yl)-8-azabicyclo[3.2.1]oct-2-en-8-yl)(3-(trifluoromethyl)bicyclo[1.1.1]pentan-1-yl)methanone] gave an IC50 of over 1000 nM.

`Cn1cc(Nc2nccc(C3=CC4CCC(C3)N4C(=O)C34CC(C3)C4)n2)cn1` (stereo not shown) [Compound 72, bicyclo[1.1.1]pentan-1-yl(3-(2-((1-methyl-1H-pyrazol-4-yl)amino)pyrimidin-4-yl)-8-azabicyclo[3.2.1]oct-2-en-8-yl)methanone] returned an IC50 of over 1000 nM. Molecule `Cn1cc(Nc2nccc(C3=CC4CCC(C3)N4C(=O)C34CC(C#N)(C3)C4)n2)cn1` (stereo not shown) [Compound 73, 3-(3-(2-((1-methyl-1H-pyrazol-4-yl)amino)pyrimidin-4-yl)-8-azabicyclo[3.2.1]oct-2-ene-8-formyl)bicyclo[1.1.1]pentane-1-carbonitrile] had an IC50 of over 1000 nM. As for `Cn1cc(Nc2nccc(C3=CC4CCC(C3)N4C(=O)C34CC(F)(C3)C4)n2)cn1` (stereo not shown) [Compound 74, (3-fluorobicyclo[1.1.1]pentan-1-yl)(3-(2-((1-methyl-1H-pyrazol-4-yl)amino)pyrimidin-4-yl)-8-azabicyclo[3.2.1]oct-2-en-8-yl)methanone], the figure is over 1000 nM; as for `Cn1cc(Nc2nccc(C3=CC4CCC(C3)N4C(=O)C(F)(F)C3CC3)n2)cn1` (stereo not shown) [Compound 75, 2-cyclopropyl-2,2-difluoro-1-(3-(2-((1-methyl-1H-pyrazol-4-yl)amino)pyrimidin-4-yl)-8-azabicyclo[3.2.1]oct-2-en-8-yl)ethan-1-one], 100 to 300 nM; as for `Cn1cc(Nc2nccc(C3=CC4CCC(C3)N4C(=O)C3CCOC3)n2)cn1` (stereo not shown) [Compound 76, (3-(2-((1-methyl-1H-pyrazol-4-yl)amino)pyrimidin-4-yl)-8-azabicyclo[3.2.1]oct-2-en-8-yl)(tetrahydrofuran-3-yl)methanone], 100 to 300 nM.

The molecule `Cn1cc(Nc2nccc(C3=CC4CCC(C3)N4C(=O)C3CCC3C#N)n2)cn1` (stereo not shown) [Compound 77, 2-(3-(2-((1-methyl-1H-pyrazol-4-yl)amino)pyrimidin-4-yl)-8-azabicyclo[3.2.1]oct-2-ene-8-formyl)cyclobutane-1-carbonitrile] gave an IC50 of under 100 nM.

With `Cn1cc(Nc2nccc(C3=CC4CCC(C3)N4C(=O)C3CCOCC3)n2)cn1` (stereo not shown) [Compound 78], the IC50 was over 1000 nM. Regarding `Cn1cc(Nc2nccc(C3=CC4CCC(C3)N4C(=O)CC3CC(F)(F)C3)n2)cn1` (stereo not shown) [Compound 79, 2-(3,3-difluorocyclobutyl)-1-(3-(2-((1-methyl-1H-pyrazol-4-yl)amino)pyrimidin-4-yl)-8-azabicyclo[3.2.1]oct-2-en-8-yl)-1-acetone], the IC50 is under 100 nM. Molecule `COC1CC(C(=O)N2C3C=C(c4ccnc(Nc5cnn(C)c5)n4)CC2CC3)C1` (stereo not shown) [Compound 80, (3-methoxycyclobutyl)(3-(2-((1-methyl-1H-pyrazol-4-yl)amino)pyrimidin-4-yl)-8-azabicyclo[3.2.1]oct-2-en-8-yl)methanone] came in with an IC50 of over 1000 nM. In the case of `Cn1cc(Nc2nccc(C3=CC4CCC(C3)N4C(=O)C3CC(CO)C3)n2)cn1` (stereo not shown) [Compound 81, (3-(hydroxymethyl)cyclobutyl)(3-(2-((1-methyl-1H-pyrazol-4-yl)amino)pyrimidin-4-yl)-8-azabicyclo[3.2.1]oct-2-en-8-yl)methanone], the IC50 is over 1000 nM. As for `Cn1cc(Nc2nccc(C3=CC4CCC(C3)N4C(=O)C(=O)NCC(F)(F)F)n2)cn1` (stereo not shown) [Compound 82, 2-(3-(2-((1-methyl-1H-pyrazol-4-yl)amino)pyrimidin-4-yl)-8-azabicyclo[3.2.1]oct-2-en-8-yl)-2-oxo-N-(2,2,2-trifluoroethyl)acetamide], the IC50 was in the range of 300 to 1000 nM. With `Cn1cc(Nc2nccc(C3=CC4CCC(C3)N4C(=O)C(=O)NCC#N)n2)cn1` (stereo not shown) [Compound 83, N-(cyanomethyl)-2-(3-(2-((1-methyl-1H-pyrazol-4-yl)amino)pyrimidin-4-yl)-8-azabicyclo[3.2.1]oct-2-en-8-yl)-2-oxoacetamide], the IC50 was over 1000 nM. The molecule `CCCS(=O)(=O)N1CC(N2C3C=C(c4ccnc(Nc5cnn(C)c5)n4)CC2CC3)C1` (stereo not shown) [Compound 84, N-(1-methyl-1H-pyrazol-4-yl)-4-(8-(1-(propansulfonyl)azetidin-3-yl)-8-azabicyclo[3.2.1]oct-2-en-3-yl)pyrimidin-2-amine] showed an IC50 of over 1000 nM. The figure for `Cn1cc(Nc2nccc(C3=CC4CCC(C3)N4C3(CC#N)CN(C(=O)[C@@H]4CC4(F)F)C3)n2)cn1` (stereo partly drawn) [Compound 85, 2-(1-((S)-2,2-difluorocyclopropane-1-carbonyl)-3-(3-(2-((1-methyl-1H-pyrazol-4-yl)amino)pyrimidin-4-yl)-8-azabicyclo[3.2.1]oct-2-en-8-yl)azetidin-3-yl)acetonitrile] is over 1000 nM; for `Cn1cc(Nc2nccc(C3=CC4CCC(C3)N4C3(CC#N)CN(C(=O)NCC(F)(F)F)C3)n2)cn1` (stereo not shown) [Compound 86, 3-(cyanomethyl)-3-(3-(2-((1-methyl-1H-pyrazol-4-yl)amino)pyrimidin-4-yl)-8-azabicyclo[3.2.1]oct-2-en-8-yl)-N-(2,2,2-trifluoroethyl)azetidine-1-carboxamide] it is over 1000 nM.

Regarding `Cn1cc(Nc2nccc(C3=CC4CCC(C3)N4CC3(C)COC3)n2)cn1` (stereo not shown) [Compound 87, N-(1-methyl-1H-pyrazol-4-yl)-4-(8-((3-methyloxetan-3-yl)methyl)-8-azabicyclo[3.2.1]oct-2-en-3-yl)pyrimidin-2-amine], the IC50 was over 1000 nM.
